From patent publication US7235263B2, “Processes for controlling microbial organic compound production” (Kimberly-Clark Worldwide, Inc., priority 2001, dated 2007)

Tests used:
[1] = test system: Proteus mirabilis (ATCC 29906); assay: Bacterial yield of facultatively grown Proteus mirabilis in urine:TSB (from optical density); format: cell-based; details: for Bacterial Yields: facultative
Procedure: Proteus mirabilis (ATCC 29906) were recovered from frozen state by growing the appropriate bacterial coated MicroBank Bead (Pro Lab, Austin Tex.) in 10 mL trypticase soy broth (TSB, Difco, Ann Arbor, Mich.) in a 15 mL sterile loosely tightened screw capped conical tube overnight at 37° C. The tube was held stationary. (E. coli (ATCC 8739), utilized in Example 6 herein, was recovered using the same procedure described herein for Proteus mirabilis). Upon observation of turbidity, the bacterial suspension was checked for purity by isolation plate and Gram stain. Once determined that the isolate was Proteus mirabilis (or E. coli in Example 6), a colony from the isolation plate was transferred to 10 mL of TSB in a 15 mL sterile screw capped conical tube and incubated overnight at 37° C. under facultative conditions. Samples of bacterial suspension resulting from this overnight TSB culture were used to initiate all experiments utilizing Proteus mirabilis bacteria (or E. coli in Example 6).
(§1) Proteus mirabilis was taken from a TSB culture (described in (1) above) and grown under various conditions for use in the Examples. For bacteria to be grown under aerobic conditions, 50 microliters of Proteus mirabilis was taken from a TSB culture prepared as described above and inoculated into a 50 mL volume of a freshly made 9:1 (by volume) pooled adult female urine:TSB mixture into a 250 mL shake flask. This mixture was rotated at 250 rpm at 37° C. overnight to grow the bacteria. For bacteria to be grown under facultative conditions, 10 microliters of Proteus mirabilis was taken from a TSB culture prepared as described above and inoculated into a 10 mL volume of a freshly made 9:1 (by volume) pooled adult female urine:TSB mixture into a 15 mL tube. The tube was loosely fitted with a screw cap, and held stationary at 37° C. overnight to grow the bacteria. For bacteria to be grown under anaerobic conditions, 10 microliters of Proteus mirabilis was taken from a TSB culture prepared as described above and inoculated into a 10 mL volume of a freshly made 9:1 (by volume) pooled adult female urine:TSB mixture into a 15 mL conical tube. The tube was purged with nitrogen and a screw cap tightly closed, and then was held stationary overnight at 37° C. to grow the bacteria.
In this Example, five samples were prepared and analyzed to determine: (1) Bacterial Yield (CFU/mL) calculated from optical density; (3) Percent viability of EPIOCULAR; and (4) EPIOCULAR IL-8. The samples included: (1) Deionized Water; (2) A urine:TSB mixture (9:1 by volume) as described above; (3) A urine:TSB mixture containing Proteus mirabilis bacteria grown under aerobic conditions as described above; (4) A urine:TSB mixture containing Proteus mirabilis bacteria grown under facultative conditions as described above; and (5) A urine:TSB mixture containing Proteus mirabilis bacteria grown under anaerobic conditions as described above.
(§2) In this Example, six different samples were prepared for analysis. The first sample comprised a urine:TSB mixture that was prepared in the same manner as that described in Example 1. […] The tube was loosely fitted with a screw cap, and held stationary at 37° C. overnight to grow the bacteria. […] The fifth sample comprising urine:TSB:Proteus mirabilis (facultatively grown) was prepared in the same manner as that described in Example 1.

[2] = test system: Proteus mirabilis (ATCC 29906); assay: Ammonia production by facultatively grown Proteus mirabilis in urine:TSB (ammonia probe); format: cell-based; details: for % Reduction of Ammonia: vs urine:TSB:facultative without mannitol peroxide
Procedure: as §1
Upon completion of the respective incubation periods of the samples, optical density measurements of each sample were taken as described above and ammonia production of the growth solutions was measured using an ammonia combination probe (Beckman, Fullerton, Calif.) by record mV using an Orion pH meter (Orion, Boston, Mass.). Orion ammonia standards (Orion) were used to calibrate the instrument.
as §2

interleukin-8 (IL-8) = assay: IL-8 release by EPIOCULAR skin culture challenged with sample; format: cell-based, human; details: for IL-8: Table 5, 6 hours; for IL-8 (n = 3): Table 6
Description: In order to evaluate the amount of skin irritation by various samples prepared in the Examples, a human skin culture was selected to model the response of the human epidermis to treated and untreated bacterial metabolized urine:TSB mixture. The tissue model selected was an EPIOCULAR Tissue Model (OCL-200 propagated without hydrocortisone), and was purchased from MatTek Corporation (Ashland, Mass.). This model consists of normal, human-derived epidermal keratinocytes, which have been cultured to form a stratified, squamous epithelium similar to that found in the cornea. The epidermal cells, which are cultured on specially prepared cell culture inserts using a serum free medium, differentiate to form a multi-layered structures which closely parallel the corneal epithelium. Experiments using this skin culture were conducted in six parallel wells. Each well contained one milliliter of pre-warmed media that was the same as the model skin culture media. The plates were then incubated in a 37° C., 5% carbon dioxide atmosphere for thirty minutes. After incubation, 25 microliters of the sample were applied to the surface of the model skin culture after removing any residual media. After application of the test solution, the well plates were incubate for 6 hours in the 37° C., 5% carbon dioxide atmosphere. At the end of 6 hours, the well plates were removed from the incubator and the underlying media removed and stored at −80° C. The response of the skin culture to test the compositions/control and the insult solution is determined by measuring the amount of interleukin-1 alpha (IL-1a) and/or interleukin-8 (IL-8). IL-1a and IL-8 were quantified using an Interleukin-1 alpha or Interleukin-8 Quantikine Kit available from R&D Systems (Minneapolis, Minn.).

[3] = Table 4, 5% mannitol peroxide, facultative
[4] = Table 4, 10% mannitol peroxide, facultative
[5] = Table 7, 5% mannitol peroxide, facultative

## mannitol peroxide
[1]; 5% and 10% mannitol peroxide, facultative Proteus mirabilis (Table 4)
  impact on the growth of the cells: very little, if any, impact on the growth of the cells
[1]; Table 3, 5% (w/v) mannitol peroxide, urine:TSB, 37° C. overnight
  Bacterial Yields: 1.30E+9 CFU/mL
[1]; Table 3, 10% mannitol peroxide, urine:TSB, 37° C. overnight
  Bacterial Yields: 8.20E+8 CFU/mL
[1]; Table 4, 5% mannitol peroxide
  Bacterial Yields: 1.30E+9 CFU/mL
[1]; Table 4, 10% mannitol peroxide
  Bacterial Yields: 8.2E+8 CFU/mL
[1]; Table 5, 5% (w/v) mannitol peroxide
  Bacterial Yields: 1.30E+9 CFU/mL
[1]; Table 5, 10% (w/v) mannitol peroxide
  Bacterial Yields: 8.20E+8 CFU/mL
[1]; Table 7, 5% mannitol peroxide
  Bacterial Yields: 8.93E+8 CFU/mL
[2]; Table 3, 5% (w/v) mannitol peroxide, facultative bacteria
  Ammonia/Cell: 1.6 ppm/CFU E+8
[2]; Table 3, 5% (w/v) mannitol peroxide, urine:TSB, facultative bacteria
  Ammonia Produced (n = 3): 34.5 ± 12.6 ppm
[2]; Table 3, 10% mannitol peroxide, facultative bacteria
  Ammonia/Cell: 0.01 ppm/CFU E+8
[2]; Table 3, 10% mannitol peroxide, urine:TSB, facultative bacteria
  Ammonia Produced (n = 3): 13.9 ± 0.3 ppm
[2]; [3]
  Ammonia (n = 3): 34.5 ± 12.6 ppm
  Ammonia/Cell: 1.6 ppm/CFU E+8
[2]; Table 4, 5% mannitol peroxide
  % Reduction of Ammonia: 53.6%
[2]; [4]
  Ammonia (n = 3): 13.9 ± 0.3 ppm
  Ammonia/Cell: 0.01 ppm/CFU E+8
[2]; Table 4, 10% mannitol peroxide
  % Reduction of Ammonia: 98.5%
[2]; [5]
  Ammonia Produced (n = 3): 434.5 ± 7.5 ppm
  Ammonia/Cell: 43.84 ppm/10E8CFU
interleukin-8 (IL-8); facultative Proteus mirabilis grown with 5% mannitol peroxide
  IL-8: 27224.30 ± 2432.83 pg/mL
interleukin-8 (IL-8); facultative Proteus mirabilis grown with 10% mannitol peroxide
  IL-8: 15884.57 ± 839.53 pg/mL
interleukin-8 (IL-8); facultative E. coli grown with 5% MP
  IL-8 (n = 3): 1769.31 ± 103.9 pg/mL
interleukin-8 (IL-8); facultative E. coli grown with 10% MP
  IL-8 (n = 3): 1336.69 ± 60.84 pg/mL
